Some test systems named below: BT-549 breast; IGROV1 ovarian; COLO 205 colon; OVCAR-3 ovarian; DU-145 prostate; SF-295 CNS; MDA-MB-435; K-562 leukemia; EKVX NSCLC; NCI-H460 lung.
Assay in all cases: inhibition of tumour cell growth, NCI panel, 48 h

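Test compounds were applied to cells in 96-well plates for 48 hours at 5 doses. TGI marks complete inhibition of growth.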 Bounds are passed on as bounds.

On to `O=c1oc2ccccc2n1CCN1CCCCC1`, for which the TGI in the assay with BT-549 breast, with IGROV1 ovarian, with COLO 205 colon, in the assay with OVCAR-3 ovarian, in the assay on DU-145 prostate and in the assay with SF-295 CNS was above 100 µM throughout. Moreover, the TGI with MDA-MB-435, in the assay on K-562 leukemia, with EKVX NSCLC and with NCI-H460 lung was above 100 µM throughout.
For `CNC(=O)c1[nH]cnc1/N=N/N(C)N`, the TGI in the assay with BT-549 breast, in the assay with IGROV1 ovarian, with COLO 205 colon, with OVCAR-3 ovarian, in the assay with DU-145 prostate and with SF-295 CNS was above 100 µM in each case. The TGI with MDA-MB-435, in the assay on K-562 leukemia, in the assay on EKVX NSCLC and with NCI-H460 lung was above 100 µM throughout.
As to `CC(C)C1OC(=O)/C=C/C=C/C=C/C=C/C=C/CC(O)CC(O)CC(O)CC(O)CC(O)CC(O)CC(O)CC(O)/C=C/C1C` (stereo not given), the TGI in the assay with BT-549 breast, in the assay on IGROV1 ovarian, in the assay on COLO 205 colon, with OVCAR-3 ovarian, in the assay on DU-145 prostate and with SF-295 CNS was above 100 µM throughout. Besides, the TGI with MDA-MB-435, in the assay with K-562 leukemia, in the assay with EKVX NSCLC and with NCI-H460 lung was above 100 µM each time.
With `Cc1nnc2n1-c1ccccc1C(=S)N1CSCC21` (stereo not given), the TGI with BT-549 breast, in the assay with IGROV1 ovarian, in the assay on COLO 205 colon, in the assay on OVCAR-3 ovarian, in the assay on DU-145 prostate and in the assay on SF-295 CNS was above 100 µM each time. In addition, the TGI in the assay with MDA-MB-435, with K-562 leukemia, with EKVX NSCLC and in the assay on NCI-H460 lung was above 100 µM each time.
Consider `O=c1[nH]nc(Cc2ccccc2)n1Nc1ccccc1`, for which the TGI in the assay with BT-549 breast, in the assay on IGROV1 ovarian, with COLO 205 colon, in the assay with OVCAR-3 ovarian, in the assay on DU-145 prostate and in the assay with SF-295 CNS was above 100 µM throughout. In addition, the TGI in the assay on MDA-MB-435, in the assay on K-562 leukemia, with EKVX NSCLC and in the assay with NCI-H460 lung was above 100 µM in each case.
In the case of `O=C1CCCCc2cccc(O)c21`, the TGI in the assay on BT-549 breast, with IGROV1 ovarian, with COLO 205 colon, in the assay with OVCAR-3 ovarian, with DU-145 prostate and in the assay with SF-295 CNS was above 100 µM each time. In addition, the TGI in the assay with MDA-MB-435, with K-562 leukemia, with EKVX NSCLC and in the assay with NCI-H460 lung was above 100 µM throughout.
For `Nc1nc(Cl)cc(Nc2cc(Cl)cc(Cl)c2)n1`, the TGI was found to be 45.4 µM in the assay on BT-549 breast; 35.4 µM with IGROV1 ovarian; 41.4 µM in the assay with COLO 205 colon; 48.6 µM in the assay on OVCAR-3 ovarian; 47.3 µM with DU-145 prostate; 38.4 µM in the assay with SF-295 CNS. In addition, the TGI in the assay on MDA-MB-435 amounted to 37.1 µM; in the assay on K-562 leukemia, 81.3 µM; with EKVX NSCLC it was 45.7 µM; with NCI-H460 lung it was 32.1 µM.
Turning to `COc1cc2c(cc1OC)CC(N=[N+]=[N-])c1cc(OC)c(OC)cc1/C=C\2` (stereo not given), the TGI with BT-549 breast is 38.8 µM; in the assay on IGROV1 ovarian it was above 100 µM; with COLO 205 colon, above 100 µM; in the assay with OVCAR-3 ovarian, above 100 µM; with DU-145 prostate it was above 100 µM; in the assay with SF-295 CNS, above 100 µM. Also, the TGI in the assay with MDA-MB-435, in the assay with K-562 leukemia, with EKVX NSCLC and in the assay on NCI-H460 lung was above 100 µM in each case.
For the compound `COc1ccc(-c2cc(-c3cc(OC)c(OC)c(OC)c3)cc(-c3cc4ccccc4oc3=O)n2)cc1`, the TGI in the assay with BT-549 breast was 27.8 µM; in the assay on IGROV1 ovarian, 24.6 µM; in the assay on COLO 205 colon it was above 100 µM; in the assay on OVCAR-3 ovarian it was 68.3 µM; with DU-145 prostate, 56.1 µM; in the assay with SF-295 CNS, 19.4 µM. For the same compound, the TGI in the assay on MDA-MB-435 is above 100 µM; in the assay with K-562 leukemia it was above 100 µM; in the assay with EKVX NSCLC, 31.5 µM; in the assay with NCI-H460 lung it was 17.8 µM.
Turning to `Brc1ccc2[nH]cc(-c3nc(-c4c[nH]c5ccccc45)cs3)c2c1`, the TGI in the assay on BT-549 breast is 23.4 µM; in the assay on IGROV1 ovarian it was 8.75 µM; in the assay with COLO 205 colon, 2.76 µM; in the assay on OVCAR-3 ovarian it was 15.5 µM; in the assay on DU-145 prostate, 10.4 µM; in the assay with SF-295 CNS, 10.6 µM. The TGI with MDA-MB-435 is 13.3 µM; in the assay with K-562 leukemia, above 20.1 µM; in the assay with EKVX NSCLC, 12.3 µM; with NCI-H460 lung, 4.9 µM.
For `Cc1cccc(NC(=S)Nc2ccccc2Cl)n1`, the TGI in the assay on BT-549 breast, in the assay on IGROV1 ovarian, with COLO 205 colon, in the assay on OVCAR-3 ovarian, in the assay with DU-145 prostate and in the assay on SF-295 CNS was above 100 µM throughout. Further, the TGI in the assay with MDA-MB-435 was above 100 µM; with K-562 leukemia, above 100 µM; with EKVX NSCLC it was 67.8 µM; in the assay on NCI-H460 lung, above 100 µM.
For `Cc1ccc(Nc2cc(=O)[nH]c(=S)[nH]2)cc1`, the TGI in the assay with BT-549 breast, in the assay with IGROV1 ovarian, in the assay with COLO 205 colon, in the assay on OVCAR-3 ovarian, in the assay on DU-145 prostate and in the assay with SF-295 CNS was above 100 µM in each case. Besides, the TGI in the assay with MDA-MB-435, with K-562 leukemia, in the assay on EKVX NSCLC and with NCI-H460 lung was above 100 µM each time.
For `COc1cc2c(c(OC)c1OC)-c1ccc(SC)cc1[C@H](OC(=O)c1ccccc1)CC2`, the TGI in the assay with BT-549 breast is above 100 µM; in the assay with IGROV1 ovarian it was above 100 µM; with COLO 205 colon it was 0.446 µM; with OVCAR-3 ovarian it was above 100 µM; in the assay with DU-145 prostate, above 61 µM; in the assay on SF-295 CNS it was above 100 µM. The TGI in the assay with MDA-MB-435, in the assay on K-562 leukemia, in the assay with EKVX NSCLC and with NCI-H460 lung was above 100 µM throughout.
